The target of the assay is human PD-L1 (Homo sapiens (Human), UniProt Q9NZQ7). Briefly: Enzyme-Linked Immunosorbent Assay (ELISA), PD-1/PD-L1 binding. To be noted: plates coated with human PD-L1; Human PD-1 and biotin added; absorbance at 450 nm. The procedure:
96 Well plates were coated with 1 μg/mL of human PD-L1 (obtained from R&D) in PBS overnight at 4° C. The wells were then blocked with 2% BSA in PBS (W/V) with 0.05% TWEEN-20 for 1 hour at 37° C. The plates were washed 3 times with PBS/0.05% TWEEN-20 and the compounds were serial diluted (1:5) in dilution medium and added to the ELISA plates. Human PD-1 and biotin 0.3 μg/mL (ACRO Biosystems) were added and incubated for 1 hour at 37° C. then washed 3 times with PBS/0.05% TWEEN-20. A second block was performed with 2% BSA in PBS (W/V)/0.05% TWEEN-20 for 10 min at 37° C. and the plates were washed 3 times with PBS/0.05% TWEEN-20. Streptavidin-HRP was added for 1 hour at 37° C. then the plates were washed 3 times with PBS/0.05% TWEEN-20. TMB substrate was added and reacted for 20 min at 37° C. A stop solution (2 N aqueous […]) was added. The absorbance was read at 450 nm using a micro-plate spectrophotometer.
Background: ELISA stands for enzyme-linked immunosorbent assay.

Chain of human PD-L1 (Q9NZQ7 19-239): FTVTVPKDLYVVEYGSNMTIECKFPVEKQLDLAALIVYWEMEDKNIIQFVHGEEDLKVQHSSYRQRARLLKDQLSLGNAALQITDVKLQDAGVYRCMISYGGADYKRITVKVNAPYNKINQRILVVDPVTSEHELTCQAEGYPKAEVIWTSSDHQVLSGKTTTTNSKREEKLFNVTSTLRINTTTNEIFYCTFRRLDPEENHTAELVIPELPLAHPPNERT

As to `COc1nc(-c2cccc(-c3cccc(Nc4nc(C)nc5cccnc45)c3C)c2Cl)ccc1CN[C@H]1CCOC1` [Compound 1.059], the half-maximal inhibitory concentration (IC50) (commonly the concentration that inhibits the measured activity by half) was under 10 nM.

With `COc1nc(-c2cccc(-c3cccc(Nc4nc(C)nc5cccnc45)c3C)c2Cl)ccc1CNCC(C)(C)C(=O)O` [Compound 1.060], the 50% inhibitory concentration (IC50) was under 10 nM.

The compound `COc1nc(-c2cccc(-c3cccc(Nc4nc(C)nc5cccnc45)c3C)c2Cl)ccc1CNCC(C)(C)O` [Compound 1.061] gave an IC50 of under 10 nM.

With `COc1nc(-c2cccc(-c3cccc(Nc4nc(C)nc5cccnc45)c3C)c2Cl)ccc1CNC(CO)(CO)CO` [Compound 1.062], the IC50 was under 10 nM.

The compound `COc1nc(-c2cccc(-c3cccc(Nc4nc(C)nc5cccnc45)c3C)c2Cl)ccc1CN1CCC(C)(O)CC1` [Compound 1.063] registered an IC50 of under 10 nM.

Consider `COc1nc(-c2cccc(-c3cccc(Nc4nc(C)nc5cccnc45)c3C)c2Cl)ccc1CN[C@@H]1CCOC[C@@H]1O` [Compound 1.064], for which the concentration for half-maximal inhibition (IC50) was under 10 nM.

As to `COc1nc(-c2cccc(-c3cccc(Nc4nc(C)nc5cccnc45)c3C)c2Cl)ccc1CN1CC(C)(C(=O)O)C1` [Compound 1.065], the concentration for half-maximal inhibition (IC50) was under 10 nM.

For `COc1nc(-c2cccc(-c3cccc(Nc4nc(C)nc5cccnc45)c3C)c2Cl)ccc1CN1CC(C(=O)O)C1` [Compound 1.066], the concentration for half-maximal inhibition (IC50) was under 10 nM.

`Cc1cc2nccnc2c(Nc2cccc(-c3cccc(-c4ccc(CNC[C@@H]5CCC(=O)N5)c(O)n4)c3Cl)c2C)n1` [Compound 1.067] returned a half-maximal inhibitory concentration (IC50) of 10 to 1000 nM.

Consider `COc1nc(-c2cccc(-c3cccc(Nc4nc(C(C)C)nc5cccnc45)c3C)c2Cl)ccc1CNC[C@@H]1CCC(=O)N1` [Compound 1.068], for which the IC50 was under 10 nM.

The compound `COc1nc(-c2cccc(-c3cccc(Nc4nc(C(F)(F)F)nc5cccnc45)c3C)c2Cl)ccc1CN1CC(C)(C(=O)O)C1` [Compound 1.069] registered an IC50 of under 10 nM.

`COc1nc(-c2cccc(-c3cccc(Nc4nc(C(F)(F)F)nc5cccnc45)c3C)c2Cl)ccc1CNC[C@@H]1CCC(=O)N1` [Compound 1.070] gave a 50% inhibitory concentration (IC50) of under 10 nM.

As to `COc1nc(-c2cccc(-c3cccc(Nc4ncnc5cccnc45)c3Cl)c2Cl)ccc1CNC[C@@H]1CCC(=O)N1` [Compound 1.071], the 50% inhibitory concentration (IC50) was under 10 nM.

`COc1nc(-c2cccc(-c3cccc(Nc4nc(C)nc5cccnc45)c3Cl)c2Cl)ccc1CN1CC(C)(C(=O)O)C1` [Compound 1.072] displayed an IC50 of under 10 nM.

The compound `COc1nc(-c2cccc(-c3cccc(Nc4nc(C)nc5cccnc45)c3C)c2Cl)ccc1CNC[C@@H]1CCC(=O)N1` [Compound 1.073] registered a 50% inhibitory concentration (IC50) of under 10 nM.

`COc1nc(-c2cccc(-c3cccc(Nc4nc(C)nc5cccnc45)c3Cl)c2Cl)ccc1CNC[C@@H]1CCC(=O)N1` [Compound 1.074] came in with a half-inhibitory concentration (IC50) of under 10 nM.

Turning to `COc1nc(-c2cccc(-c3cccc(Nc4nccc5nccnc45)c3C)c2Cl)ccc1CN[C@@H]1CCOC[C@@H]1O` [Compound 1.075], the half-inhibitory concentration (IC50) is under 10 nM.

`COc1nc(-c2cccc(-c3cccc(Nc4nccc5nccnc45)c3C)c2Cl)ccc1CN1CC(C(=O)O)C1` [Compound 1.076] returned a concentration for half-maximal inhibition (IC50) of under 10 nM.

`COc1nc(-c2cccc(-c3cccc(Nc4nccc5nccnc45)c3C)c2Cl)ccc1CN1CC(O)C1` [Compound 1.077] gave an IC50 of under 10 nM.

For the compound `COc1nc(-c2cccc(-c3cccc(Nc4nccc5nccnc45)c3C)c2Cl)ccc1CNC[C@@H]1CCC(=O)N1` [Compound 1.078], the IC50 is under 10 nM.

With `COc1nc(-c2cccc(-c3cccc(Nc4nccc5nccnc45)c3Cl)c2Cl)ccc1CN1CC(O)C1` [Compound 1.079], the IC50 is under 10 nM.

For `CCc1nc(-c2cccc(-c3cccc(Nc4nccc5nccnc45)c3Cl)c2Cl)cnc1CNC[C@@H]1CCC(=O)N1` [Compound 1.080], the half-inhibitory concentration (IC50) is under 10 nM.

For `COc1nc(-c2cccc(-c3cccc(Nc4nccc5nccnc45)c3Cl)c2Cl)ccc1CN[C@@H]1CNC(=O)C1` [Compound 1.081], the IC50 is under 10 nM.

`COc1nc(-c2cccc(-c3cccc(Nc4nccc5nccnc45)c3Cl)c2Cl)ccc1CN1CC(C(=O)O)C1` [Compound 1.082] showed an IC50 of under 10 nM.

As for `COc1nc(-c2cccc(-c3cccc(Nc4nccc5nccnc45)c3Cl)c2Cl)ccc1CN1CC(C)(C(=O)O)C1` [Compound 1.083], the half-inhibitory concentration (IC50) is under 10 nM.

As for `COc1nc(-c2cccc(-c3cccc(Nc4nccc5nccnc45)c3Cl)c2Cl)ccc1CNC[C@@H]1CCC(=O)N1` [Compound 1.084], the IC50 is under 10 nM.

The values are drawn from US11866429B2, “Heteroaryl-biphenyl amines for the treatment of PD-L1 diseases” (CHEMOCENTRYX, INC., priority 2019, dated 2024).
